Laboratory results from publication PMC4138991, “Building a Better Dynasore: The Dyngo Compounds Potently Inhibit Dynamin and Endocytosis” (Traffic (Copenhagen, Denmark), 2013).

Assays:
human serum albumin = biological target: T1, human serum albumin (Homo sapiens, UniProt P02768); test: Plasma protein binding on immobilized human serum albumin column; assay type: in vitro ADME; settings: immobilized HSA column
T1 construct: purchased ChromTech Chiral‐HSA, 50 × 3.0 mm, 5 µm
Excerpt: Plasma protein binding was estimated using an immobilized human serum albumin column (ChromTech Chiral‐HSA, 50 × 3.0 mm, 5 µm) with gradient elution based on a previously published method 56.

[1] = biological target: T2, clathrin heavy chain binding to amphiphysin 1 (Homo sapiens, UniProt Q00610); test: ELISA-based clathrin binding assay; settings: up to 300 μM
T2 construct: recombinant GST-tagged clathrin heavy chain TD (amino acids 1-364); made in house; host or cells: bacteria
T2 sequence (Q00610 1-364): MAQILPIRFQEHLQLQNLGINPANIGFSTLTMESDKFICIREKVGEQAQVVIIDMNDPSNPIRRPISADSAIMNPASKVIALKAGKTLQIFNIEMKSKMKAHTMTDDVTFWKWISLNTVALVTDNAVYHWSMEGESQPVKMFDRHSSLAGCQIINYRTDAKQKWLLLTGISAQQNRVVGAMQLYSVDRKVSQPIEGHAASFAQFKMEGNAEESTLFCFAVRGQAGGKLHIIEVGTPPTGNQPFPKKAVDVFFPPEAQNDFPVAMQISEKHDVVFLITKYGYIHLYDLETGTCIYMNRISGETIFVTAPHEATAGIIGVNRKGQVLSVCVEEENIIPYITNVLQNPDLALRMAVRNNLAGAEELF
Protocol: (§1) The assay for the interaction of amphiphysin with either clathrin or AP2 was based on our previous report (11). Bacterially expressed recombinant purified His6-tagged amphiphysin 1 PRD+CLAP domains (amino acids 250-578) in screening buffer (20 mM HEPES, pH 7.4, 50 mM NaCl, 1 mM DTT, 1 mM PMSF) was added to a 384 well ELISA plate (high-binding PS Microplate, Greiner Bio-One) and bound to the plastic at room temperature for 1 hr. Non-specific binding was reduced by overnight incubation with 50 µL blocking buffer (20 mM HEPES, pH 7.4, 50 mM NaCl, 1 mM PMSF, 2 % BSA, 2.5 % skim milk) at 4 °C. Following extensive washes (with 20 mM HEPES, pH 7.4, 50 mM NaCl, 0.05 % Tween 20), chemical compounds diluted in DMSO (10 µL) were added and incubated together with bacterially expressed recombinant GST-tagged clathrin heavy chain TD (amino acids 1-364) or GST-AP-2 α-appendage (amino acids 702–938) for 1 hr at room temperature in screening buffer. This incubation was in the presence of test compounds diluted in 1% DMSO or 1% DMSO alone as a control. After 3 washes, horseradish peroxidase-coupled anti-GST antibodies were added in screening buffer and the plate incubated for 15 min at room temperature. Following additional washes, 50 µL TMB (3,3′,5,5′-tetramethylbenzidine) (Pierce Biotechnology) chromogenic substrate of horseradish peroxidase was added and the plate was incubated for 20 min before the reaction was terminated by adding 50 µL 1 N sulfuric acid to produce a yellow colour. The amount of bound protein was determined by spectrophotometric measurement in a plate reader in triplicates. Relative binding was calculated as a percentage of the DMSO control.

[2] = biological target: T3, AP-2 alpha ear binding to amphiphysin 1 (Mus musculus, UniProt P17427); test: ELISA-based AP-2 binding assay
T3 construct: GST-AP-2 α-appendage (amino acids 702–938); made in house; host or cells: bacteria
T3 sequence (P17427 702-938): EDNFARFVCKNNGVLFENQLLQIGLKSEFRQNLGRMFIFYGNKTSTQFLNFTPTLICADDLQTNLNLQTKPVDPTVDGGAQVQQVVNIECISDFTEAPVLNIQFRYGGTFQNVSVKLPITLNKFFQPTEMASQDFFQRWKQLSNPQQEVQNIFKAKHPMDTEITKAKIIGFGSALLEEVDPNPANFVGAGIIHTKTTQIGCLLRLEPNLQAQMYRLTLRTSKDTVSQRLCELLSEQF
Protocol: as §1

HeLa cells = test: Trypan blue exclusion cell viability and proliferation assay; assay type: cell-based; settings: 20 h exposure, with or without serum
Protocol: Cell viability and membrane integrity was assessed by the Trypan Blue exclusion assay. Cells were seeded into 10 cm dish at a density of 1 × 10^5 cells per dish. […] This was carried out in the presence and absence of FBS.

[3] = system: mitochondria in HeLa cells; test: Mitotracker labeling of mitochondria, live confocal imaging; assay type: cell-based; settings: 30 μM 4a, 30 μM 6a or 100 μM dynasore, 30 min
Excerpt: Dynasore was originally reported to inhibit the GTPase activity of dynamin‐like protein 1 (Dlp‐1), which is involved in mitochondrial fission. This raises the possibility that dynasore and the Dyngo compounds may affect mitochondrial morphology and/or dynamics in cells. We investigated this by labeling mitochondria in live HeLa cells using Mitotracker Green FM and imaging the cells over time using confocal microscopy. These cells stably expressed an mCherry‐conjugated form of the nuclear histone protein H2B, providing contrast to the green mitochondria.
HeLa cells were used that had been stably transduced to express H2B-mCherry. Cells were cultured at 37 °C, 5% CO2 in RPMI medium with 10% FBS. Expression of the transgene was maintained by puromycin selection. The day before imaging, cells were seeded on 4-chambered, glass bottomed 35 mm round dish at a density of 1 x 10^5 cells per chamber. The next day, cells were washed 4x in PBS and then incubated either in RPMI + 10% FBS or RPMI alone for 4 h. Medium was then removed and replaced with Mitotracker green-FM (150 nM) diluted in Hank’s buffered salt solution. Cells were incubated in Mitotracker for 20 min and then returned to RPMI either with or without serum. Cells were then imaged in a Yokugawa CV1000 Cell Voyager live cell confocal system prior to the application of compounds. Compounds were then applied: control samples received 1% DMSO, while test samples received 4a, 6a or dynasore (final DMSO concentration of 1%). Cells were incubated for at 37 °C, 5% CO2 and then images acquired over 2 h at 6 min intervals. 6 images were taken of each test condition.

T1 sequence (P02768 25-609): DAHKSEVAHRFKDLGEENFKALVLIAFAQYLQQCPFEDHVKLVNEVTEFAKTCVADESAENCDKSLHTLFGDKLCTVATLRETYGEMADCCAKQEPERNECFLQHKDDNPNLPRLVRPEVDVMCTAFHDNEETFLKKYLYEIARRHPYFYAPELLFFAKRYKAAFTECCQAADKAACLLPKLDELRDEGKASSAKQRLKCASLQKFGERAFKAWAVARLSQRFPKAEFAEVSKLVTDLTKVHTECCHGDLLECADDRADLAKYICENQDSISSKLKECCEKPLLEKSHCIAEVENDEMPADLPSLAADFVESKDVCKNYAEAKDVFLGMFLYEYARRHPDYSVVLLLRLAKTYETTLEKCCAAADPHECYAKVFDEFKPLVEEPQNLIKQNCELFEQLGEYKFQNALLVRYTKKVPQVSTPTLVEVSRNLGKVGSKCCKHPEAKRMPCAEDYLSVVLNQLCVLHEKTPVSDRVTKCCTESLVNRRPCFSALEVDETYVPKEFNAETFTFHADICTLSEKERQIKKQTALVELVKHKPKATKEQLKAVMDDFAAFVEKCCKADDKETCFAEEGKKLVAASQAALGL

Row | Structure (SMILES) | bound to human serum albumin (human serum albumin) [% bound] | inhibition of clathrin heavy chain binding to amphiphysin 1 [1] | times less potent on AP-2 binding than for dynamin I inhibition [2] [times] | IC50 ([2]; ELISA, n = 1 in triplicate) [µM] | cell membrane integrity / viability by trypan blue exclusion (HeLa cells) | mitochondrial morphology [3] | IC50 AP-2 alpha ear binding to amphiphysin 1 ([2]; ELISA, n = 1 in triplicate)
1 | O=C(N/N=C/c1cc(O)c(O)cc1O)c1cc2ccccc2cc1O [4a, (E)-3-Hydroxy-N'-(2,4,5-trihydroxybenzylidene) -2-naphthohydrazide] | 99.4 | None of the compounds inhibited this interaction | ~1000 | 362 | do not affect cell viability | did not mediate any changes in mitochondrial morphology | 
2 | O=C(N/N=C/c1cccc(O)c1O)c1cc2ccccc2cc1O [6a, (E)-N'-(2,3-Dihydroxybenzylidene)-3-hydroxy-2-naphthohydrazide] | 99.7 | None of the compounds inhibited this interaction |  |  | do not affect cell viability | appeared to cause mitochondrial fragmentation | no effect
3 | O=C(N/N=C/c1ccc(O)c(O)c1)c1cc2ccccc2cc1O [Dynasore, (E)-N'-(3,4-Dihydroxybenzylidene)-3-hydroxy-2-naphthohydrazide] | 98.8 | None of the compounds inhibited this interaction |  |  | do not affect cell viability | did not mediate any changes in mitochondrial morphology | no effect
